In patent publication US20100003217A1, “Compounds and Pharmaceutical Compositions for the Treatment of Viral Infections” (priority 2008, published 2010):

System: Huh-7 cells
Test: Metabolic disposition of [^14C]-Compound 1 and [^14C]-2′-C-methyl guanosine in Huh-7 cells (incubation medium, cellular extracts, nucleotide levels)
Type: in vitro ADME, human
Settings: for 2′-C-methyl guanosine nucleotide levels in cellular extracts / Major metabolites observed in cellular extracts (% of total radioactivity) / AUC (area under the concentration-time curve) of Compound 7 levels: Huh7; for AUC (area under the concentration-time curve) of Compound 7 levels: 0-72 h
Procedure: Huh-7 cells: Confluent monolayers of Huh-7 cells were dispersed using trypsin-EDTA, rinsed and pelleted by centrifugation at 1,000 rpm (Beckman, Model Allegra 6R). Cells were resuspended at 0.2, 0.3 and 0.4×10^6 cells/mL of medium (DMEM supplemented with 1% pyruvate, 10% FBS, 0.5% penicillin-streptomycin, 1% L-glutamine, 1% non-essential amino acids and 22 mM HEPES). Multi-well collagen I-coated plates (rat tail collagen type I; 6-well) were then seeded by addition of 2.0 mL of cell suspension to achieve final cell density of 0.4, 0.6 and 0.8×10^6 cells/well and placed in an incubator at 37° C. overnight to allow cells to attach and acclimatize to culture and the medium. Duplicate plates were prepared with the same cell density for cell number determination at each time point.
Huh-7 incubations were conducted in a final volume of 2.0 mL Huh7 culture medium/well ([…]). Culture medium from overnight incubation of cells was removed and replaced with fresh culture medium, pre-warmed to 37° C. containing [^14C]-Compound 1 or [^14C]-2′-C-methyl guanosine as described above for primary hepatocytes. After 24, 48 and 72 hours, 0.5-1.0 mL of incubation medium was removed and stored at −20° C. until analysis (described below). The remaining medium was discarded and cell monolayers processed and extracted as described above.
Preliminary identification of putative metabolites was conducted by comparing the retention time of observed metabolites in incubation medium and cellular extracts with retention times obtained with chemically synthesized standards using the chromatography conditions described below. Further identification of 2′-C-methyl guanosine nucleotides (mono-, di- and triphosphate) was carried out by incubating cellular extract samples with alkaline phosphatase (10 units for 60 min at 37° C.) and comparing the HPLC retention times of the resulting nucleosides with that of authentic 2′-C-methyl guanosine.
Cellular extracts were prepared by centrifugation at 16,000 RCF using an Eppendorf microcentrifuge (Eppendorf, Model 5415D) for 10 min to remove cellular debris. An aliquot of 5-10 μL of the supernatant was added to 5 mL of EcoLite™ (MP, Irvine, Calif.) liquid scintillation cocktail and radioactivity measured by liquid scintillation counting (LSC) using a Beckman Coulter LS6500 multipurpose liquid scintillation counter (Beckman Instruments, Fullerton, Calif.). The remaining sample was then dried using a Labconco refrigerated centrivap concentrator (Labconco, Kansas City, Mo.). Dry extracts were reconstituted in 120 μL of HPLC-grade water and centrifuged at 16,000 RCF using an Eppendorf microcentrifuge for 10 min. Prior to HPLC analysis (described below), radioactivity of the concentrated extracts was measured by LSC using 5 μL aliquots. Extraction recovery was then determined by comparing total radioactivity in extracts before and after drying. The remaining extract was then analyzed by HPLC with online radioactivity detection using a Flow Scintillation Analyzer Radiomatic™ 515TR. Radioactivity in the separated components was quantified by integrating the peaks using Flo-One™ Software (Perkin Elmer Life Sciences). Samples with poor recovery (<85%) were re-analyzed when possible.
Incubation medium samples were thawed at room temperature, vortexed and centrifuged at 16,000 RCF using an Eppendorf microcentrifuge. An aliquot of 10 μL was added to 5 mL of EcoLite™ (MP, Irvine, Calif.) liquid scintillation cocktail and radioactivity measured by LSC using a Beckman Coulter LS6500 multipurpose liquid scintillation counter (Beckman Instruments, Fullerton, Calif.). Samples (50-100 μL) were then analyzed by HPLC (described below) with online radioactivity detection using a Flow Scintillation Analyzer Radiomatic™ 515TR. Radioactivity in the separated components was quantified by integrating the peaks using Flo-One™ Software (Perkin Elmer Life Sciences). Samples with poor recovery (<85%) were re-analyzed when possible. […]

[1] = 10 μM [^14C]-2′-C-methyl guanosine, 0 h, n = 1
[2] = 10 μM [^14C]-2′-C-methyl guanosine, 24 h
[3] = 10 μM [^14C]-2′-C-methyl guanosine, 24 h, n = 1
[4] = 10 μM [^14C]-2′-C-methyl guanosine, 48 h
[5] = 10 μM [^14C]-2′-C-methyl guanosine, 48 h, n = 1
[6] = 10 μM [^14C]-2′-C-methyl guanosine, 72 h
[7] = 10 μM [^14C]-2′-C-methyl guanosine, 72 h, n = 1
[8] = 10 μM [^14C]-Compound 1, 0 h, replicate 1 of n = 2
[9] = 10 μM [^14C]-Compound 1, 0 h, replicate 2 of n = 2
[10] = 10 μM [^14C]-Compound 1, 24 h, first series
[11] = 10 μM [^14C]-Compound 1, 24 h, replicate 1 of n = 2
[12] = 10 μM [^14C]-Compound 1, 24 h, replicate 2 of n = 2
[13] = 10 μM [^14C]-Compound 1, 24 h, second series
[14] = 10 μM [^14C]-Compound 1, 48 h, first series
[15] = 10 μM [^14C]-Compound 1, 48 h, replicate 1 of n = 2
[16] = 10 μM [^14C]-Compound 1, 48 h, replicate 2 of n = 2
[17] = 10 μM [^14C]-Compound 1, 48 h, second series
[18] = 10 μM [^14C]-Compound 1, 72 h, first series
[19] = 10 μM [^14C]-Compound 1, 72 h, replicate 1 of n = 2
[20] = 10 μM [^14C]-Compound 1, 72 h, replicate 2 of n = 2
[21] = 10 μM [^14C]-Compound 1, 72 h, second series

Row | SMILES | 2′-C-methyl guanosine nucleotide levels in cellular extracts [1] [pmol/million cells] | Major metabolites observed in cellular extracts (% of total radioactivity) [2] | 2′-C-methyl guanosine nucleotide levels in cellular extracts [3] | Major metabolites observed in cellular extracts (% of total radioactivity) [4] | 2′-C-methyl guanosine nucleotide levels in cellular extracts [5] | Major metabolites observed in cellular extracts (% of total radioactivity) [6] | 2′-C-methyl guanosine nucleotide levels in cellular extracts [7] | 2′-C-methyl guanosine nucleotide levels in cellular extracts [8] [pmol/million cells] | 2′-C-methyl guanosine nucleotide levels in cellular extracts [9] [pmol/million cells] | Major metabolites observed in cellular extracts (% of total radioactivity) [10] | 2′-C-methyl guanosine nucleotide levels in cellular extracts [11] [pmol/million cells] | 2′-C-methyl guanosine nucleotide levels in cellular extracts [12] [pmol/million cells] | Major metabolites observed in cellular extracts (% of total radioactivity) [13] | Major metabolites observed in cellular extracts (% of total radioactivity) [14] | 2′-C-methyl guanosine nucleotide levels in cellular extracts [15] [pmol/million cells] | 2′-C-methyl guanosine nucleotide levels in cellular extracts [16] [pmol/million cells] | Major metabolites observed in cellular extracts (% of total radioactivity) [17] | Major metabolites observed in cellular extracts (% of total radioactivity) [18] | 2′-C-methyl guanosine nucleotide levels in cellular extracts [19] [pmol/million cells] | 2′-C-methyl guanosine nucleotide levels in cellular extracts [20] [pmol/million cells] | other results
1 | C[C@@]1(O)[C@H](O)[C@@H](COP(=O)(O)OP(=O)(O)O)O[C@H]1n1cnc2c(=O)[nH]c(N)nc21 [Compound 6, [(2R)-2-methyl-β-D-ribofuranosyl]guanine 5′-diphosphate] | 0 | BLD (BLD = below limit of detection (30 DPM)) | BLD (BLD = below limit of detection (0.02 pmol/million cells)) | 3.56 % of total radioactivity | BLD (BLD = below limit of detection (0.02 pmol/million cells)) | BLD (BLD = below limit of detection (30 DPM)) | BLD (BLD = below limit of detection (0.02 pmol/million cells)) | 0 | 0 | BLD (BLD = below limit of detection (30 DPM)) | 2.20 | 0 | 7.55 % of total radioactivity | 6.14 % of total radioactivity | 1.60 | 1.40 | 6.42 % of total radioactivity | 6.86 % of total radioactivity | 1.60 | 1.10 | Major metabolites observed in cellular extracts (% of total radioactivity) [21]: 8.44 % of total radioactivity
2 | C[C@@]1(O)[C@H](O)[C@@H](COP(=O)(O)OP(=O)(O)OP(=O)(O)O)O[C@H]1n1cnc2c(=O)[nH]c(N)nc21 [Compound 7, [(2R)-2-methyl-β-D-ribofuranosyl]guanine 5′-triphosphate] | 0 | 10.5 % of total radioactivity | 3.10 pmol/million cells | 7.18 % of total radioactivity | 1.40 pmol/million cells | 10.4 % of total radioactivity | 1.60 pmol/million cells | 0 | 0 | 59.7 % of total radioactivity | 8.60 | 21.3 | 71.8 % of total radioactivity | 71.5 % of total radioactivity | 16.1 | 15.2 | 59.3 % of total radioactivity | 72.1 % of total radioactivity | 11.1 | 13.3 | AUC (area under the concentration-time curve) of Compound 7 levels (10 μM [^14C]-2′-C-methyl guanosine, n = 1): 120 pmol * hr/million cells; AUC (area under the concentration-time curve) of Compound 7 levels (10 μM [^14C]-Compound 1, replicate 1 of n = 2): 726 pmol * hr/million cells; AUC (area under the concentration-time curve) of Compound 7 levels (10 μM [^14C]-Compound 1, replicate 2 of n = 2): 1,020 pmol * hr/million cells; Major metabolites observed in cellular extracts (% of total radioactivity) [21]: 69.6 % of total radioactivity; Compound 7 AUC0-72h (Huh7 cells (n=1), [^14C]-2′-C-methyl guanosine): 120 pmol*h/million cells; Compound 7 AUC0-72h (Huh7 cells (n=2), [^14C]-Compound 1): 873 pmol*h/million cells; Compound 7 maximum concentration (Huh7 cells, [^14C]-2′-C-methyl guanosine, at 24 hours): 3 pmol/million cells; Maximum Compound 7 levels (Huh7 cells, [^14C]-Compound 1, at 48 hours): 16 pmol/million cells; % of total radioactivity in cellular extracts (Huh7 cells, up to 72 hours after [^14C]-Compound 1 incubation): 83-93%; Levels of Compound 7 in Huh7 cells lower than in human hepatocytes ([^14C]-Compound 1): 88%
